The values that follow come from article PMC9930359, “Cytotoxicity of the methanol extracts and compounds of Brucea antidysenterica (Simaroubaceae) towards multifactorial drug-resistant human cancer cell lines” (BMC Complementary Medicine and Therapies, 2023).

One data set has as its system MDA-MB-231-BCRP cells. In words: Resazurin reduction assay (RRA), cytotoxicity. Particulars: for IC50: Homo sapiens, MDA-MB-231/BCRP, 72 h; for Degree of resistance (D.R.): ratio of IC50 MDA-MB-231-BCRP vs MDA-MB-231-pcDNA. (In general: The colour change of resazurin is a common sign of viable cells or microbes.)
For a further data set, the system named is HCT116 p53−/− cells. In words: Resazurin reduction assay (RRA), cytotoxicity. Format: cell-based, human. Particulars: for IC50: Homo sapiens, HCT-116, HCT116 p53−/−, 72 h; for Degree of resistance (D.R.): ratio of IC50 HCT116 p53−/− vs HCT116 p53+/+.
Another data set has as its system CEM/ADR5000 cells. In words: Resazurin reduction assay (RRA), cytotoxicity. In kind it is cell-based, human. Particulars: for IC50: Homo sapiens, CEM/ADR5000, 72 h; for Degree of resistance (D.R.): ratio of IC50 CEM/ADR5000 vs CCRF-CEM.
In the next data set the test system is HepG2 cells. Briefly: Resazurin reduction assay (RRA), cytotoxicity. Conditions: Homo sapiens, HepG2, 72 h. In kind it is cell-based.
The subject of the next data set is MDA-MB-231-pcDNA cells. In words: Resazurin reduction assay (RRA), cytotoxicity. Format: cell-based. Particulars: Homo sapiens, 72 h.
The subject of a further data set is U87MG.ΔEGFR cells. In words: Resazurin reduction assay (RRA), cytotoxicity. Format: cell-based, human. Conditions: for IC50: Homo sapiens, U87MG.ΔEGFR, 72 h; for Degree of resistance (D.R.): ratio of IC50 U87.MGΔEGFR vs U87.MG.
The test system of the next data set is CCRF-CEM leukemia cells. In words: Resazurin reduction assay (RRA), cytotoxicity. In kind it is cell-based. Particulars: Homo sapiens, 72 h.
In a further data set the test system is AML12 hepatocytes. Briefly: Resazurin reduction assay (RRA), cytotoxicity on normal hepatocytes. Particulars: for IC50: Mus musculus, AML12 normal hepatocytes, 72 h; for Selectivity index (S.I.): ratio of IC50 in AML12 vs IC50 in HepG2 cells. In kind it is cell-based.
The test system of a further data set is U87MG cells. In words: Resazurin reduction assay (RRA), cytotoxicity. Format: cell-based. Conditions: Homo sapiens, U-87 MG, 72 h.
The subject of a further data set is HCT116 p53+/+ cells. Briefly: Resazurin reduction assay (RRA), cytotoxicity. In kind it is cell-based. Particulars: Homo sapiens, HCT-116, 72 h.
Data set [1] deals with CCRF-CEM cells. In words: Reactive oxygen species (ROS), H2DCFH-DA staining, flow cytometry. Format: cell-based, human. Conditions: 50 µM, 24 h. The method, then: (§1) The modification of the MMP as well as the ROS levels after the application of BAL, and flavonolignan 2 at ¼ IC50, ½ IC50, IC50, and 2 × IC50 to CCRF-CEM cells (1 × 10^6) was performed by flow cytometry. DMSO was used as solvent control while valinomycin served as a positive control. The cells were incubated for 24 h and further stained for 30 min with JC-1 [45] and measured (1 × 10^4 cells) in an LSR-Fortessa FACS analyzer (Becton–Dickinson). For ROS determination, CCEF-CEM cells were similarly treated BAL, the flavonolignan 2, hydrogen peroxide (H2O2; positive control), DMSO (solvent control) as in the MMP analysis, then incubated for 24 h. They were further stained with H2DCFH-DA and measured (1 × 10^4 cells) in an LSR-Fortessa FACS analyzer.
A general note: Flow cytometry measures light scatter and fluorescence of single cells or particles in a stream.

Data set [2] deals with CCRF-CEM cells. Briefly: Mitochondrial membrane potential (MMP), JC-1 staining, flow cytometry. In kind it is cell-based, human. Particulars: 10 µM, 24 h. The method, then: as §1

Experimental for AML12 hepatocytes: (§2) The RPMI-1640 medium was used for the culture of CCRF-CEM and CEM/ADR5000 cells whilst DMEM medium was used for carcinoma cells. The culture media were supplemented (complete medium) with 10% fetal bovine serum and 1% penicillin/streptomycin (Invitrogen, Eggenstein, Germany). […] To maintain the resistance phenotype of the resistant carcinoma cell lines such as MDA-MB-231/BCRP and HCT116 p53^−/−, and U87MG.ΔEGFR cells, the complete DMEM medium containing geneticin at 800 ng/ml and 400 µg/ml, respectively were used [41, 42].
(§3) Cells were cultured in a standard condition consisted of a humidified 5% CO2 atmosphere and an incubation temperature of 37 °C. The tested concentration ranges were 0.63—80 µg/mL for the botanicals and 0.78—100 µM for phytochemicals. The incubation time of the treated cells was 72 h, and the fluorescence was measured with Infinite M2000 Pro™ plate reader (Tecan, Crailsheim, Germany). The wavelengths used were 544 nm for the excitation and 590 nm for the emission. […] The degree of resistance (D.R.) was set as the ratio of the IC50 values of samples in the resistant cell line vs that of corresponding sensitive cell line. The selectivity index (S.I.) was the ratio of the IC50 value of AML12 hepatocytes vs. that of HepG2 cells [13, 48].
Text for CCRF-CEM leukemia cells: (§4) In this work, 9 cancer cell lines with various drug resistance patterns as well as AML12 hepatocytes as normal control cell line were used. […] The AML12 hepatocytes were used for the comparison of the activities of the samples with HepG2 [40]. […] The RPMI-1640 medium was used for the culture of CCRF-CEM and CEM/ADR5000 cells whilst DMEM medium was used for carcinoma cells. The culture media were supplemented (complete medium) with 10% fetal bovine serum and 1% penicillin/streptomycin (Invitrogen, Eggenstein, Germany). […] To maintain the resistance phenotype of the resistant carcinoma cell lines such as MDA-MB-231/BCRP and HCT116 p53^−/−, and U87MG.ΔEGFR cells, the complete DMEM medium containing geneticin at 800 ng/ml and 400 µg/ml, respectively were used [41, 42].
as §3
Experimental for CEM/ADR5000 cells: as §2, §3
Text for HCT116 p53+/+ cells: as §4, §3
Experimental for HCT116 p53−/− cells: as §2, §3
Text for HepG2 cells: as §4, §3
Experimental for MDA-MB-231-BCRP cells: as §2, §3
Text for MDA-MB-231-pcDNA cells: as §4, §3
Text for U87MG cells: as §4, §3
Experimental for U87MG.ΔEGFR cells: as §2, §3

With `CC(C)=CC(=O)c1c[nH]c2ccccc12` [Compound 1, 3, (3-(3-methyl-1-oxo-2-butenyl))1H indole], the IC50 (as a rule, the concentration that inhibits the measured activity by half) is 47.5 ± 2.75 µM in the data set with MDA-MB-231-BCRP cells; 36.4 ± 3.04 µM in the data set with HCT116 p53−/− cells; 32 ± 2.05 µM with CEM/ADR5000 cells; 39.9 ± 2.84 µM with HepG2 cells; 13.4 ± 0.93 µM with MDA-MB-231-pcDNA cells; 36.3 ± 3.01 µM with U87MG.ΔEGFR cells. In addition, the IC50 with CCRF-CEM leukemia cells was 19.1 ± 1.56 µM; with AML12 hepatocytes, more than 100 µM; with U87MG cells, 24.2 ± 1.16 µM; in the data set with HCT116 p53+/+ cells, 23.9 ± 2.32 µM. Moreover, the “Degree of resistance (D.R.)” value in the data set with MDA-MB-231-BCRP cells is given as 3.54; in the data set with HCT116 p53−/− cells, 1.53; in the data set on CEM/ADR5000 cells, 1.68; in the data set on U87MG.ΔEGFR cells, 1.50. The “Selectivity index (S.I.)” value in the data set with AML12 hepatocytes is more than 2.50.

For the molecule `C[C@@H](O)C1CCC2C3CC=C4C[C@@H](O[C@@H]5OC[C@H](O)[C@H](O)[C@H]5O)CC[C@]4(C)C3CC[C@@]21C` (stereo partly drawn) [Compound 3, (20R)-O-(3)-α-L-arabinopyranosyl-pregn-5-en-3β,20-diol], the melting point (usually the temperature, or range, at which the solid turns liquid) is 258 to 260 °C. The molecule further came in with an IC50 in the data set with MDA-MB-231-BCRP cells of more than 100 µM. Further, in the data set on HCT116 p53−/− cells, half-maximal inhibition (IC50) was put at 50.5 ± 3.81 µM and the “Degree of resistance (D.R.)” value is less than 0.50. Further, in the data set with CEM/ADR5000 cells, the half-maximal inhibitory concentration (IC50) came out at 73.9 ± 5.32 µM and the “Degree of resistance (D.R.)” value is listed as 2.60. The molecule also came in with an IC50 in the data set with HepG2 cells of 85.2 ± 5.7 µM. In the data set with MDA-MB-231-pcDNA cells, this molecule yielded an IC50 of more than 100 µM. Further, in the data set with U87MG.ΔEGFR cells, the IC50 was more than 100 µM. Moreover, the concentration for half-maximal inhibition (IC50) in the data set with CCRF-CEM leukemia cells came out at 28.4 ± 1.76 µM. Also, in the data set with AML12 hepatocytes, the half-maximal inhibitory concentration (IC50) was more than 100 µM and the “Selectivity index (S.I.)” value was more than 1.17. This molecule also gave a 50% inhibitory concentration (IC50) in the data set with U87MG cells of more than 100 µM. Moreover, in the data set on HCT116 p53+/+ cells, the IC50 was more than 100 µM.

Molecule `C[C@@H](O)C1CCC2C3CC=C4C[C@@H](O[C@@H]5OC[C@H](O)[C@H](O)[C@H]5O[C@@H]5O[C@H](CO)[C@@H](O)[C@H](O)[C@H]5O)CC[C@]4(C)C3CC[C@@]21C` (stereo partly drawn) [Compound 4, (20R)-O-(3)-β-D-glucopyranosyl(1 → 2)-α-L-arabinopyranosyl-pregn-5-en-3β,20-diol] returned a melting point of 258 to 260 °C. Further, the half-inhibitory concentration (IC50) in the data set with MDA-MB-231-BCRP cells is more than 100 µM. In addition, in the data set with HCT116 p53−/− cells, the IC50 was found to be 32.2 ± 2.37 µM and the “Degree of resistance (D.R.)” value is recorded as less than 0.32. For the same molecule, in the data set with CEM/ADR5000 cells, the 50% inhibitory concentration (IC50) was more than 100 µM and the “Degree of resistance (D.R.)” value is recorded as more than 3.13. In the data set with HepG2 cells, 31.2 ± 2.11 µM corresponded to half-maximal inhibition (IC50). For the same molecule, the IC50 in the data set with MDA-MB-231-pcDNA cells was more than 100 µM. In addition, in the data set with U87MG.ΔEGFR cells, it took 28.3 ± 1.66 µM to reach half-maximal inhibition (IC50) and the “Degree of resistance (D.R.)” value was 1.00. Moreover, the half-inhibitory concentration (IC50) with CCRF-CEM leukemia cells was found to be 32 ± 2.16 µM. Besides, in the data set on AML12 hepatocytes, the IC50 was more than 100 µM and the “Selectivity index (S.I.)” value is on record as more than 3.21. This molecule registered an IC50 with U87MG cells of 28.3 ± 2.08 µM. The molecule further yielded an IC50 in the data set on HCT116 p53+/+ cells of more than 100 µM.

Turning to `O=c1ccc2nccc3c4ccccc4n1c23` [Compound 5, canthin-6-one], the IC50 in the data set on MDA-MB-231-BCRP cells was more than 100 µM; in the data set with HCT116 p53−/− cells, 21 ± 1.72 µM; with CEM/ADR5000 cells it was more than 100 µM; in the data set with HepG2 cells, 26.1 ± 1.63 µM; in the data set with MDA-MB-231-pcDNA cells, more than 100 µM; in the data set on U87MG.ΔEGFR cells, 21.1 ± 1.49 µM. In addition, the IC50 was 44.2 ± 3.52 µM in the data set on CCRF-CEM leukemia cells, more than 100 µM with AML12 hepatocytes, 19.6 ± 1.55 µM with U87MG cells and 24.7 ± 2.16 µM in the data set on HCT116 p53+/+ cells. The “Degree of resistance (D.R.)” value with HCT116 p53−/− cells is 0.85; in the data set on CEM/ADR5000 cells, more than 2.26; with U87MG.ΔEGFR cells it was 1.08. For the same molecule, in the data set on AML12 hepatocytes, the “Selectivity index (S.I.)” value is listed as more than 3.83.

For the molecule `CC(C)(O)[C@@H](O)Cc1cn([C@@H]2O[C@H](CO)[C@@H](O)[C@H](O)[C@H]2O)c2ccccc12` [Compound 7, 3-(2’,3’-dihydroxy-3’-méthylbutyl)-1N-β-glucopyranosylindole], the melting point fell in the range of 209 to 211 °C. This molecule also yielded an IC50 in the data set with MDA-MB-231-BCRP cells of more than 100 µM. This molecule also came in with a 50% inhibitory concentration (IC50) in the data set with HCT116 p53−/− cells of more than 100 µM. Moreover, in the data set with CEM/ADR5000 cells, the IC50 is more than 100 µM and the “Degree of resistance (D.R.)” value is listed as more than 4.91. For the same molecule, in the data set on HepG2 cells, the IC50 is more than 100 µM. In the data set on MDA-MB-231-pcDNA cells, this molecule showed an IC50 of more than 100 µM. In the data set on U87MG.ΔEGFR cells, this molecule gave a half-maximal inhibitory concentration (IC50) of more than 100 µM. In the data set on CCRF-CEM leukemia cells, this molecule had an IC50 of 20.4 ± 0.94 µM. In addition, the half-inhibitory concentration (IC50) in the data set on AML12 hepatocytes was more than 100 µM. Besides, the IC50 in the data set with U87MG cells was more than 100 µM. In the data set with HCT116 p53+/+ cells, this molecule yielded a 50% inhibitory concentration (IC50) of more than 100 µM.

As to `OO` [Compound H2O2, hydrogen peroxide, reference compound], the “ROS levels in treated cells” value with CCRF-CEM cells [1] is listed as 94.30%.

Consider `COc1cccc2c1C(=O)c1c(O)c3c(c(O)c1C2=O)C[C@@](O)(C(=O)CO)C[C@@H]3O[C@H]1C[C@H](N)[C@H](O)[C@H](C)O1` [Doxorubicin, reference compound], for which the IC50 is 0.79 ± 0.08 µg/mL in the data set with MDA-MB-231-BCRP cells; 1.78 ± 0.08 µg/mL with HCT116 p53−/− cells (Table 2); 123 ± 10.9 µg/mL in the data set on CEM/ADR5000 cells (Table 2); 4.56 ± 0.48 µg/mL in the data set on HepG2 cells (Table 2); 0.13 ± 0.01 µg/mL in the data set on MDA-MB-231-pcDNA cells (Table 2); 0.98 ± 0.07 µg/mL in the data set on U87MG.ΔEGFR cells (Table 2). In addition, the half-maximal inhibitory concentration (IC50) is 0.02 µM in the data set with CCRF-CEM leukemia cells, 0.02 µg/mL with CCRF-CEM leukemia cells (Table 2), more than 50 µg/mL in the data set with AML12 hepatocytes (Table 2) and 0.26 ± 0.03 µg/mL with U87MG cells (Table 2). Besides, the “Degree of resistance (D.R.)” value in the data set with MDA-MB-231-BCRP cells is recorded as 6.14; with HCT116 p53−/− cells, 3.73; with CEM/ADR5000 cells it was 6,683.00; with U87MG.ΔEGFR cells, 3.79.

As for `CC(C)[C@@H]1NC(=O)[C@H](C)OC(=O)[C@@H](C(C)C)NC(=O)[C@@H](C(C)C)OC(=O)[C@H](C(C)C)NC(=O)[C@H](C)OC(=O)[C@@H](C(C)C)NC(=O)[C@@H](C(C)C)OC(=O)[C@H](C(C)C)NC(=O)[C@H](C)OC(=O)[C@@H](C(C)C)NC(=O)[C@@H](C(C)C)OC1=O` [valinomycin, reference compound], in the data set with CCRF-CEM cells [2], the “cells with MMP disrupted” value is on record as 16.8%, the “cells with MMP loosed” value amounted to 44.5% and the “healthy cells (intact MMP)” value was found to be 38.8%.
